“Also recorded” adds a separate entry of the source.
Assays:
Flavobacterium IR1 = experiment: Theophylline toxicity assay on growth; type: cell-based; details: 24 hours at 25° C.
Method: Because theophylline uptake from IR1 appears to be a prerequisite, a toxicity assay was carried out on the growth of IR with varying theophylline concentrations ([…]) grown for 24 hours at 25° C. […] The arrow indicates the time when theophylline was added to the medium. […] Therefore, 2 mM of theophylline was used for inducing the intron splicing in following experiments.

[1] = tested on: LacZ gene of E. coli MG1655; experiment: SIBR-Cas genome editing (HR and CRISPR-Cas counterselection) of LacZ; type: cell-based
Description: For efficient genome editing in bacteria, HR should precede CRISPR-Cas counterselection. To assess whether tight control over CRISPR-Cas targeting could bolster the efficiency of CRISPR-Cas mediated genome editing by allowing more time for HR to occur, we used SIBR-Cas and targeted the LacZ gene of E. coli MG1655 for knock-out through HR and CRISPR-Cas counterselection using a blue/white screening colony assay. To facilitate HR, we added 500 bp up- and down-stream homology arms to the plasmids expressing the four SIBR-Cas (Int1-4) and WT-FnCas12a variants that target the LacZ gene. After 1 hour recovery, we induced the expression of the SIBR-Cas variants to counterselect the WT from the mutant colonies.
Since disruption of LacZ can also be achieved through non-HR mediated approaches (spontaneous mutations or occasional error-prone DNA repair following DNA cleavage by Cas12a), not all gene deletions can be screened phenotypically. Therefore, we repeated our experiment, but X-gal was omitted from the medium to eliminate the possibility of false-positives. Randomly selected colonies that were obtained were screened by PCR for LacZ deletion showing a 0%, 0%, 29% and 38% editing efficiency for Int1, Int2, Int3 and Int4 SIBR-Cas variants, respectively (FIG. 24C). […] The observed decrease in editing efficiency (compared to the blue/white screening) might be attributed to spontaneous LacZ mutations that escape CRISPR-Cas counterselection. Nevertheless, a high editing efficiency (38%) was observed when SIBR-Cas Int4 was used without the use of recombinases or any other complex systems.

EndA of P. putida = experiment: FnCas12a targeting assay with Tagged-T4 td intron variants in P. putida; type: cell-based, Pseudomonas putida; details: media with or without theophylline
Method: Plasmids bearing the four T4 td intron-FnCas12a or the intron-less FnCas12a and an EndA T or an NT crRNA were transformed to P. putida and the targeting efficiency was assessed by comparing the CFUs μg^−1 in the presence or absence of the theophylline inducer.
In more detail, electrocompetent P. putida cells were transformed (2.5 kV, 200 Ω, 25 μF) with 200 ng plasmid and recovered in 1 ml LB for 2 hours at 30° C. Then, the culture was serially diluted and drop plated on selective (50 μg mL^−1 kanamycin) LB agar plates in the presence or absence of 2 mM theophylline. The agar plates were incubated at 30° C. for 24 hours and the CFUs were counted.
P. putida was transformed with a series of plasmids (listed in Table 6) and serially diluted and drop plated on selective (kanamycin) LB media with or without 2 mM theophylline. […] However, for P. putida, the effect of induction was more apparent than E. coli as no CFUs could be observed for transformants bearing the T crRNA and plated on selective media with theophylline. […] Collectively, the Tagged-intron constructs work efficiently in P. putida and can be used for genome engineering.

LacZa of E. coli MG1655 = experiment: FnCas12a targeting assay with Tagged-T4 td intron variants (CFU drop plating); type: cell-based; details: T crRNA, both induced and non-induced selective media
Description: Four different intron variants (as shown previously in FIG. 8), referred to as “Tag1”, “Tag2”, etc. (Tag1: −4P, −5P, −6P; Tag2: −4W, […] −4W, −5W, −6P; Tag4: −4M, −5P, −6P) are inserted directly after the start codon of the GOI (FnCas12a gene). The 5′ exon sequences of the four different tags are indicated: Tag1: TCCtcaGGT (SEQ ID NO: 7); Tag2: TCCtcgGGT (SEQ ID NO: 8); Tag3: TCCttgGGT (SEQ ID NO: 9); Tag4: TCCtctGGT (SEQ ID NO: 10). The 3′ exon sequence is conserved amongst the 4 different tags and indicated as CTA (SEQ ID NO: 12). The amino acids corresponding to the Tag sequences are indicated with capital bold letters above the Tagged-introns. Intron-less (wild-type) FnCas12a was used as a reference for comparison. Efficiency of targeting of the different Tagged-T4 td intron variants was assessed by using either a LacZa targeting (T) or a non-targeting (NT) crRNA and by comparing the amount of colony forming units (CFUs) of transformed E. coli MG1655 per μg of plasmid used (CFUs μg^−1). CFU was determined by the number of colonies observed.
Electrocompetent E. coli MG1655 were transformed (2.5 kV, 200 Ω, 25 μF) with 10 ng μL^−1 of the respective plasmid and recovered for 1 hour in 500 μL LB medium [10 g L^−1 tryptone (Oxoid), 5 g L^−1 yeast extract (BD), 10 g L^−1 NaCl (Acros)] at 37° C. Then, the recovered culture was serially diluted and drop plated on selective (50 μg mL^−1 kanamycin) LB agar plates in the presence or absence of 2 mM theophylline. The agar plates were incubated at 30° C. for 24 hours and the CFUs were counted.
E. coli MG1655 was transformed with a series of plasmids (listed in Table 4) and serially diluted and drop plated on selective (kanamycin) LB media with or without 2 mM theophylline. […] The effect of the CFU reduction was more apparent for the Tag4-intron where colonies could only be observed at the 10° dilution, followed by Tag3-intron (10^−1) then Tag2-intron (10^−2) and finally Tag1-intron ([…]).

Compound | growth of IR1 (Flavobacterium IR1; 5 and 10 mM of theophylline) | growth of IR1 (Flavobacterium IR1; theophylline concentration of up to 2 mM) | colonies obtained ([1]; LacZ targeting) | unbiased editing efficiency (LacZ deletion by PCR of randomly selected colonies) ([1]; X-gal omitted from the medium) [%] | editing efficiency: percentage of white colonies from total CFUs mL-1 ([1]; blue/white screening, LacZ targeting, induced after 1 hour recovery) [%] | CFUs (EndA of P. putida) | CFUs (LacZa of E. coli MG1655)
Cn1c(=O)c2[nH]cnc2n(C)c1=O [Theophylline, theophylline] | decreased the growth | did not affect significantly the growth | – | – | – | – | –
WT-FnCas12a: Intron-less (wild-type) FnCas12a used as a reference for comparison [reference compound] | – | – | no colonies; also recorded: did not yield any colonies | 0 | 0 | did not have any CFUs | complete elimination of CFUs
